The record followed here is US8222278B2, “Treatment of attention-deficit/hyperactivity disorder” (Abbott Laboratories, priority 2008, dated 2012).

The subject of this data set is adults with ADHD. The data set can be described thus: Study A: weight and vital signs. The data set is classed as in vivo, human. As to conditions: final evaluation (LOCF). The protocol:
The treatment group differences in vital signs were analyzed using a Grizzle Model similar to the model used for the efficacy analyses with the exclusion of period-specific baselines.

SMILES strings stand for the structures.

Regarding `Clc1cc(N2C[C@@H]3CN[C@@H]3C2)cnc1Cl` [ABT-894, 3-(5,6-Dichloro-pyridin-3-yl)-1S,5S-3,6-diazabicyclo[3.2.0]heptane], the “Diastolic BP, mean difference from placebo” value reads like this: (ABT-894 1 mg QD) 0.28 mm Hg; (ABT-894 2 mg QD) 0.62 mm Hg; (ABT-894 4 mg BID) −2.21 mm Hg; (ABT-894 4 mg QD) 0.23 mm Hg. Besides, the “Pulse, mean difference from placebo” value is, setting by setting: (ABT-894 1 mg QD) −0.24 bpm; (ABT-894 2 mg QD) 0.42 bpm; (ABT-894 4 mg BID) 0.98 bpm; (ABT-894 4 mg QD) 3.14 bpm. Further, the “Systolic BP, mean difference from placebo” value was 1.36 mm Hg (ABT-894 1 mg QD), 1.07 mm Hg (ABT-894 2 mg QD), −0.48 mm Hg (ABT-894 4 mg BID) and −0.08 mm Hg (ABT-894 4 mg QD). The “Weight, mean difference from placebo” value is 0.48 kg (ABT-894 1 mg QD), 0.09 kg (ABT-894 2 mg QD), -0.08 kg (ABT-894 4 mg BID) and 0.04 kg (ABT-894 4 mg QD).
